Target: T1, mu opiate receptor (MOR) (Rattus norvegicus, UniProt P33535)
T1 construct: from tissue; host or cells: striatum (membrane preparation)
Test: MOR agonist activity using [35S]GTPgS binding assay in striatal membranes
Format: biochemical
Parameters: MOR agonist activity (preliminary study): unit of the concentration uncertain
Conditions: for MOR agonist activity (preliminary study): average of two runs
Procedure: To assess the mu opiate receptor (MOR) agonist activity of positive compounds from the FLNA screening, compounds were tested in a [^35S]GTPgS binding assay using striatal membranes. […] This assay measures a functional consequence of receptor occupancy at one of the earliest receptor-mediated events. The assay permits for traditional pharmacological parameters of potency, efficacy and antagonist affinity, with the advantage that agonist measures are not subjected to amplification or other modulation that may occur when analyzing parameters further downstream of the receptor.
Thus, striatal tissue was homogenized in 10 volumes of ice cold 25 mM HEPES buffer, pH 7.4, which contained 1 mM EGTA, 100 mM sucrose, 50 mg/ml leupeptin, 0.04 mM PMSF, 2 mg/ml soybean trypsin inhibitor and 0.2% 2-mercaptoethanol. The homogenates were centrifuged at 800×g for 5 minutes and the supernatants were centrifuged at 49,000×g for 20 minutes. The resulting pellets were suspended in 10 volume of reaction buffer, which contained 25 mM HEPES, pH 7.5, 100 mM NaCl, 50 mg/ml leupeptin, 2 mg/ml soybean trypsin inhibitor, 0.04 mM PMSF and 0.02% […].
The resultant striatal membrane preparation (200 mg) was admixed and maintained (incubated) at 30° C. for 5 minutes in reaction buffer as above that additionally contained 1 mM MgCl2 and 0.5 nM [^35S]GTPgS (0.1 mCi/assay, PerkinElmer Life and Analytical Sciences) in a total volume of 250 ml and continued for 5 minutes in the absence or presence of 0.1-10 mM of an assayed compound of interest. The reaction was terminated by dilution with 750 ml of ice-cold reaction buffer that contained 20 mM MgCl2 and 1 mM EGTA and immediate centrifugation at 16,000×g for 5 minutes.
The resulting pellet was solubilized by sonicating for 10 seconds in 0.5 ml of immunoprecipitation buffer containing 0.5% digitonin, 0.2% sodium cholate and 0.5% NP-40. Normal rabbit serum (1 ml) was added to 1 ml of lysate and incubated at 25° C. for 30 minutes. Nonspecific immune complexes were removed by incubation with 25 ml of protein A/G-conjugated agarose beads at 25° C. for 30 minutes followed by centrifugation at 5,000×g at 4° C. for 5 minutes. The supernatant was divided and separately incubated at 25° C. for 30 minutes with antibodies raised against Gao proteins (1:1,000 dilutions).
The immunocomplexes so formed were collected by incubation at 25° C. for 30 minutes with 40 ml of agarose-conjugated protein A/G beads and centrifugation at 5,000×g at 4° C. for 5 minutes. The pellet was washed and suspended in buffer containing 50 mM Tris-HCl, pH 8.0, and 1% NP-40. The radioactivity in the suspension was determined by liquid scintillation spectrometry. […] DAMGO (1 or 10 mM) was used as a positive control.

[1] = 0.1 μM compound as agonist, Series C-2 table
[2] = 1 μM compound as agonist, Series C-2 table
[3] = 0.1 (unit uncertain) compound as agonist
[4] = 1 (unit uncertain) compound as agonist
[5] = 0.1 μM compound as agonist, Series C-1 table
[6] = 1 μM compound as agonist, Series C-1 table

T1 sequence (P33535 whole entry): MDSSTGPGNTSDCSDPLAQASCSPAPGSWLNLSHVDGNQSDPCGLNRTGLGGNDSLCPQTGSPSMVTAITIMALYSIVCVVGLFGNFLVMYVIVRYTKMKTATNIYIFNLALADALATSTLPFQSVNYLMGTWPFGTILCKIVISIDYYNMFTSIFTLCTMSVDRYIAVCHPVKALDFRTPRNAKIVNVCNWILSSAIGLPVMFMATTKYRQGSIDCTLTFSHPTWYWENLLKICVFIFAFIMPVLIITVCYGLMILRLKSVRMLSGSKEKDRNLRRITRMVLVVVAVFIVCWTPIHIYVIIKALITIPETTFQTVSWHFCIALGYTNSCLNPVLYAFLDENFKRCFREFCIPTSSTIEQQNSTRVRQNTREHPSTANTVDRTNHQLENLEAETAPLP

O=C1CN(C2CCc3ccccc3C2)C2(CCN(S(=O)(=O)c3ccccc3)CC2)N1 (stereo not drawn) [C0136M/ (P5)] was tested, and the “MOR agonist activity ([35S]GTPgS binding to Gao)” value [1] was 176.8%, the “MOR agonist activity ([35S]GTPgS binding to Gao)” value (1 μM + BFNA, Series C-2 table) was 74.5% and the “MOR agonist activity ([35S]GTPgS binding to Gao)” value [2] was 237.3%.
For O=C1CN(Cc2ccccc2)C2(CCN(C3CCCCC3)CC2)N1 [C0137M P7], the “MOR agonist activity ([35S]GTPgS binding to Gao)” value [1] was 180.8%, the “MOR agonist activity ([35S]GTPgS binding to Gao)” value (1 μM + BFNA, Series C-2 table) was 55.8% and the “MOR agonist activity ([35S]GTPgS binding to Gao)” value [2] was 193.8%.
In the case of O=S(=O)(c1ccc(OC(F)(F)F)cc1)N1CCOC12CCN(CC1CC1)CC2 [Compound 4], the “MOR agonist activity (preliminary study)” value (1 mM + bNFA) is reported as 49.5%, the “MOR agonist activity (preliminary study)” value [3] is reported as 133.9% and the “MOR agonist activity (preliminary study)” value [4] is reported as 165.2%.
With Cc1ccc(S(=O)(=O)N2CCOC23CCN(CC2CCC2)CC3)cc1 [Compound 9] the “MOR agonist activity (preliminary study)” value (1 mM + bNFA) was 56.6%, the “MOR agonist activity (preliminary study)” value [3] was 156.6% and the “MOR agonist activity (preliminary study)” value [4] was 197.2%.
C=CCN1CCC2(CC1)OCCN2S(=O)(=O)c1ccc(C)cc1 [Compound 10] was tested, and the “MOR agonist activity (preliminary study)” value (1 mM + bNFA) was 60.4%, the “MOR agonist activity (preliminary study)” value [3] was 163.1% and the “MOR agonist activity (preliminary study)” value [4] was 191.8%.
COc1ccc(S(=O)(=O)N2CCC3(CC2)OCCN3S(=O)(=O)c2ccc(OC)cc2)cc1 [Compound 7866] was tested, and the “MOR agonist activity ([35S]GTPgS binding to Gao)” value [5] was 152.3%, the “MOR agonist activity ([35S]GTPgS binding to Gao)” value (1 μM + BFNA, Series C-1 table) was 62.4% and the “MOR agonist activity ([35S]GTPgS binding to Gao)” value [6] was 308.2%.
For Cc1ccc(S(=O)(=O)N2CCC3(CC2)OCCN3S(=O)(=O)c2ccc(C)cc2)cc1 [Compound C0001], the “MOR agonist activity ([35S]GTPgS binding to Gao)” value [5] was 129.3%, the “MOR agonist activity ([35S]GTPgS binding to Gao)” value (1 μM + BFNA, Series C-1 table) was 33.9% and the “MOR agonist activity ([35S]GTPgS binding to Gao)” value [6] was 184.3%.
For COc1cccc(S(=O)(=O)N2CCC3(CC2)OCCN3S(=O)(=O)c2cccc(OC)c2)c1 [Compound C0002], the “MOR agonist activity ([35S]GTPgS binding to Gao)” value [5] was 88.4%, the “MOR agonist activity ([35S]GTPgS binding to Gao)” value (1 μM + BFNA, Series C-1 table) was 3.9% and the “MOR agonist activity ([35S]GTPgS binding to Gao)” value [6] was 93.8%.
With COc1ccccc1S(=O)(=O)N1CCC2(CC1)OCCN2S(=O)(=O)c1ccccc1OC [Compound C0003] the “MOR agonist activity ([35S]GTPgS binding to Gao)” value [5] was 162.3%, the “MOR agonist activity ([35S]GTPgS binding to Gao)” value (1 μM + BFNA, Series C-1 table) was 107.7% and the “MOR agonist activity ([35S]GTPgS binding to Gao)” value [6] was 215.9%.
For N#Cc1ccccc1S(=O)(=O)N1CCC2(CC1)OCCN2S(=O)(=O)c1ccccc1C#N [Compound C0004], the “MOR agonist activity ([35S]GTPgS binding to Gao)” value [5] was 122.0%, the “MOR agonist activity ([35S]GTPgS binding to Gao)” value (1 μM + BFNA, Series C-1 table) was 65.8% and the “MOR agonist activity ([35S]GTPgS binding to Gao)” value [6] was 228.4%.
With O=S(=O)(c1cccc(OC(F)(F)F)c1)N1CCC2(CC1)OCCN2S(=O)(=O)c1cccc(OC(F)(F)F)c1 [Compound C0005] the “MOR agonist activity ([35S]GTPgS binding to Gao)” value [5] was 180.4%, the “MOR agonist activity ([35S]GTPgS binding to Gao)” value (1 μM + BFNA, Series C-1 table) was 166.4% and the “MOR agonist activity ([35S]GTPgS binding to Gao)” value [6] was 227.2%.
With O=S(=O)(c1ccc(OC(F)(F)F)cc1)N1CCC2(CC1)OCCN2S(=O)(=O)c1ccc(OC(F)(F)F)cc1 [Compound C0006] the “MOR agonist activity ([35S]GTPgS binding to Gao)” value [5] was 121.5%, the “MOR agonist activity ([35S]GTPgS binding to Gao)” value (1 μM + BFNA, Series C-1 table) was 4.6% and the “MOR agonist activity ([35S]GTPgS binding to Gao)” value [6] was 204.0%.
In the case of CC(C)c1ccc(S(=O)(=O)N2CCC3(CC2)OCCN3S(=O)(=O)c2ccc(C(C)C)cc2)cc1 [Compound C0007], the “MOR agonist activity ([35S]GTPgS binding to Gao)” value [5] is reported as 79.1%, the “MOR agonist activity ([35S]GTPgS binding to Gao)” value (1 μM + BFNA, Series C-1 table) is reported as 10.9% and the “MOR agonist activity ([35S]GTPgS binding to Gao)” value [6] is reported as 195.0%.
In the case of N#Cc1ccc(S(=O)(=O)N2CCC3(CC2)OCCN3S(=O)(=O)c2ccc(C#N)cc2)cc1 [Compound C0008], the “MOR agonist activity ([35S]GTPgS binding to Gao)” value [5] is reported as 71.2%, the “MOR agonist activity ([35S]GTPgS binding to Gao)” value (1 μM + BFNA, Series C-1 table) is reported as 2.8% and the “MOR agonist activity ([35S]GTPgS binding to Gao)” value [6] is reported as 201.6%.
For CS(=O)(=O)c1ccc(S(=O)(=O)N2CCC3(CC2)OCCN3S(=O)(=O)c2ccc(S(C)(=O)=O)cc2)cc1 [Compound C0009], the “MOR agonist activity ([35S]GTPgS binding to Gao)” value [5] was 146.3%, the “MOR agonist activity ([35S]GTPgS binding to Gao)” value (1 μM + BFNA, Series C-1 table) was 26.4% and the “MOR agonist activity ([35S]GTPgS binding to Gao)” value [6] was 256.2%.
